Results reported in patent US10428387B2, “Treating chronic myelogenous leukemia (CML)” (priority 2014, dated 2019).
Counter-ions that a name gives are not always drawn.

What was measured:
[1] = test system: RAF/MEK/ERK signaling (phosphorylated ERK1/2); assay: Immunoblot analysis of RAF/MEK/ERK signaling in K562 cell lines; assay type: cell-based, human
Procedure: Cells were harvested and lysed with RIPA buffer (10×, 200 mM HEPES pH 6.8, 1400 mM NaCl, 25 mM MgCl2, 25 mM CaCl2, 10% NP40, and 5% sodium deoxycholate) plus phosphatase (Sigma) and protease inhibitors (Roche). […] The PKCη antibody (Santa Cruz Technology; C-15) was diluted in 5% skim milk at 1:150. The β-actin antibody (Sigma; AC-74) diluted in 5% BSA at 1:5000. Blots were developed with Pico/Femato super signal (Sigma) and visualized using autoradiography or a Bio-Rad ChemiDoc MP Imaging System.

[2] = test system: phosphorylated ERK1/2 in CML progenitor and stem cells; assay: Intracellular phosphorylated-ERK1/2 analysis by FACS; assay type: cell-based, mouse; conditions: 5 μM IM or 10 nM trametinib, 3 hours
Procedure: For intracellular phosphorylated-ERK1/2 analysis, bone marrow cells isolated from leukemic mice were treated with 5 μM IM or 10 nM trametinib for 3 hours, fixed in 4% paraformaldehyde (Electron Microscopy Sciences) for 10 min at 37° C., washed twice with wash buffer (0.05% BSA in 1×PBS), spun down, and resuspended in 100 μl wash buffer. Ice-cold methanol (900 μl) was added to the cells while gently vortexing to reach a final 90% for permeabilization. Samples were incubated on ice for 30 min, washed twice, and resuspended in 100 μl wash buffer. IgG control antibody (Cell signaling) was added (at 1:100 dilution) for 10 min at room temperature for blocking, followed by addition of 2 μl conjugated IgG control (Pacific Blue-conjugated IgG^XP Rabbit mAb, Cell Signaling) or phospho-ERK antibody (Pacific Blue-conjugated P-p44/42(T202/Y204)^XP Rabbit mAb, Cell Signaling). Samples were gently mixed and incubated at room temperature for 1 hour. Thirty minutes after the start of the incubation, a cocktail of primary antibodies for cell surface markers (described above) was added, incubated for a further 30 min, washed once with PBS, and incubated with the secondary antibody for 20 min on ice. Samples were then washed once with wash buffer prior to FACS analysis.

[3] = test system: mice with CML-like disease (Prkch KD); assay: Prkch knockdown mice with CML-like disease; assay type: in vivo, mouse; conditions: IM from day 14
Procedure: Mice with CML-like disease were generated as previously described (22). Briefly, wild-type male C57BL/6 mice 6-8 weeks of age (Jackson Laboratory) were tail-vein injected with 5-fluorouracil (200 mg/kg; Sigma) for 4 days to enrich for slow-cycling hematopoietic stem cells. At day 5, bone marrow cells were harvested and pre-incubated overnight in the presence of IL-3, IL-6 and SCF (all from PeproTech) to increase infection efficiency. At days 6 and 7, bone marrow cells were infected with a BCR-ABL retrovirus by co-sedimentation method at 3,000 rpm for 90 min at room temperature. Four hours after the second round of retroviral infection, 0.5×10^6 bone marrow cells were injected into the tail vein of syngeneic recipient mice that had been lethally irradiated (twice at 550 R). Mice were randomly allocated to each group after bone marrow transplantation.

IMSG KD K562 cells = conditions: representative IMSG KD K562 cell lines expressing PRKCH shRNA
K562R cells = conditions: K562R over-express the Src family kinase LYN; cited from earlier work

Cc1ccc(NC(=O)c2ccc(CN3CCN(C)CC3)cc2)cc1Nc1nccc(-c2cccnc2)n1 [IM, imatinib mesylate]
phosphorylated MEK and ERK1/2 after IM treatment ([1]; K562/PRKCH cells): maintained high levels | phosphorylation of ERK1/2 following IM treatment ([1]; all IMSG KD K562 cell lines): sustained levels | phosphorylated-ERK1/2 levels after IM treatment ([1]; control K562 cells): substantial decrease | phosphorylated ERK1/2 in CML progenitor cells [2]: reduced levels of phosphorylated ERK1/2 | survival of IM-treated mice after knockdown of Prkch [3]: markedly increased survival | IM resistance after knockdown of PRKCH (IMSG KD K562 cells): abrogated the IM resistance | sensitivity of K562R cells (K562R cells): resistant
